One assay concerns T cell clones. The class given is cell-based, human.
In assay [1] the test system is Peripheral blood mononucleate cells (PBMC). The class given is cell-based, human.
The subject of assay [2] is T cell clones specific for TT3. It is filed as cell-based, human.
Assay [3] has as its system T cell clones specific for TT3. The class given is cell-based, human. This is another data set of the same source.
Assay [4] deals with C57BL/6, CBA and DBA/2 mice. The following applies: mouse, in vivo.
Another assay relates to lymph node cells. The class given is cell-based, mouse.
Assay [5] concerns CBA, DBA/2 and C57BL/6 mice. The following applies: CBA and DBA/2 mice; n between 3 and 40; cited from earlier work.

Ends that are not written are not given here.

As for FNNFTVSFWLRVPK [TT200], the “recognition of the epitope by restricted T cell clones” value with T cell clones was “recognised by all other DR and DP allele restricted clones”.
With FNNFTVSFWLRVPKVSASHLE [TT3], in assay [1], the “in vitro response of PBMC of different HLA-typized individuals immunized with the tetanus toxin” value is recorded as “responded in vitro” and the “share of all the T cells specific for the tetanus toxoid (TT)” value is listed as ≤ 5%. Moreover, the “proliferation of all the isolated clones in response to antigen presented by autologous APC cells” value in assay [2] is on record as “proliferated”. In addition, the “Independent restriction (class II MHC alleles able to present the peptide to at least one T cell clone)” value in assay [3] is “DR5 and DR9 and DR7 and DP2 and DP4 and DP? and DR5JVM/DP4”. Besides, in assay [4], the “anti-TT3 antibody count after boosting” value is “increased” and the “anti-TT3 antibody count with IFA compared with CFA” value is listed as “same values”. For the same substance, in the assay with lymph node cells, the “proliferative T cell response of lymph node cells” value is recorded as “good proliferative T cell response”.
With “H-(Asn-Ala-Asn-Pro)n -OH (H-NANP-OH; also: repeated n times) [(NANP)n]”, in assay [5], the anti-CSP antibody response entry is on record as “not able to induce”.
As to tetanus toxoid [reference compound], the “proliferation of all the isolated clones in response to antigen presented by autologous APC cells” value in assay [2] is given as “proliferated”.
